Active and inactive are the calls of the source. No cut-off for these calls is given here.
Tests used:
RAW264.7 [1] = test: Upregulation of phosphorylated Smad2 level in mouse RAW264.7 cells at 2.5 to 20 uM incubated for 4 hrs by Western blot analysis; type: functional, cell-based; conditions: dose 2.5-20 µM
Staphylococcus aureus = test: Antimicrobial activity against Staphylococcus aureus ATCC 25923 assessed as microbial growth inhibition at 100 uM; type: functional, organism-based
RAW264.7 [2] = test: Upregulation of phosphorylated p38 level in mouse RAW264.7 cells at 2.5 to 20 uM incubated for 4 hrs by Western blot analysis; type: functional, cell-based; conditions: dose 2.5-20 µM
[3] = Induction of wound healing in BALB/c mouse model of full-thickness wounds at 50 ug/ml, TOP bid measured after 8 days (reference value: 81.0 %); type: functional; conditions: dose 50 µg/ml, time 8 day
Neutrophil = test: Induction of cell migration in Aprepitant-treated BALB/c mouse neutrophils at 5 to 40 uM incubated for 8 hrs by transwell migration assay; type: functional, cell-based; conditions: dose 5-40 µM
Escherichia coli = test: Antimicrobial activity against Escherichia coli ATCC 25922 assessed as microbial growth inhibition at 100 uM; type: functional, organism-based
Splenic fibroblast = test: Effect on cell proliferation in human […] fibroblasts at 5 to 40 uM incubated for 24 hrs by MTT assay; type: functional, cell-based; conditions: dose 5-40 µM
[4] = Induction of TGF-beta1 level in mouse RAW264.7 cells at 20 uM incubated for 24 hrs by ELISA; type: functional
Mus musculus [5] = organism: Mus musculus; test: Induction of wound healing in BALB/c mouse model of full-thickness wounds assessed as increase in IL-10 level in wound skin at 50 ug/ml, TOP bid measured after 4 days by ELISA; type: functional; conditions: dose 50.0 µg/ml, time 4.0 day
HUVEC [6] = test: Induction of cell migration in HUVEC cells assessed as healing rate at 20 uM measured after 24 hrs by scratch healing assay (reference value: 30.2 %); type: functional, Homo sapiens
[7] = Induction of TGF-beta1 level in mouse RAW264.7 cells at 10 uM incubated for 24 hrs by ELISA; type: functional
HUVEC [8] = test: Induction of cell migration in HUVEC cells assessed as formation of filopodia extensions at 20 uM measured after 24 hrs by immunofluorescence microscopy; type: functional, cell-based; conditions: Homo sapiens
[9] = Induction of wound healing in BALB/c mouse model of full-thickness wounds assessed as recruitment of M1-type macrophages in wound skin at 50 ug/ml, TOP bid measured after 4 days by flow cytometry (reference value: 85.3 %); type: functional; conditions: dose 50 µg/ml, time 4 day
[10] = Induction of wound healing in BALB/c mouse model of full-thickness wounds at 100 ug/ml, TOP bid measured after 8 days (reference value: 81.0 %); type: functional; conditions: dose 100 µg/ml, time 8 day
RAW264.7 [11] = test: Induction of phagocytosis in mouse RAW264.7 cells cultured with Escherichia coli ATCC 25922 assessed as number of engulfed bacteria at 10 uM incubated for 24 hrs followed by bacterial exposure measured after 1 hr by plate counting method (reference value: 225); type: functional; conditions: time 25 hrs
RAW264.7 [12] = test: Induction of IL-1beta expression in mouse RAW264.7 cells incubated for 24 hrs by ELISA; type: functional, cell-based; conditions: dose 2.5-20 µM
Mus musculus [13] = organism: Mus musculus; test: Induction of wound healing in BALB/c mouse model of full-thickness wounds assessed as reduction in epidermal cells in wound skin at 50 ug/ml, TOP bid measured after 4 days by IHC analysis; type: functional, cell-based; conditions: dose 50.0 µg/ml, time 4.0 day
Mus musculus [14] = organism: Mus musculus; test: Induction of wound healing in BALB/c mouse model of full-thickness wounds assessed as increase in phosphorylated Smad3 level in wound skin at 50 to 200 ug/ml, TOP bid measured after 4 days by Western blot analysis; type: functional; conditions: dose 50-200 µg/ml, time 4.0 day
[15] = Induction of wound healing in BALB/c mouse model of full-thickness wounds at 50 ug/ml, TOP bid pretreated with Aprepitant for 2 hrs followed by compound administration measured after 4 days (reference value: 50.6 %); type: functional; conditions: dose 50 µg/ml, time 4 day
Aorta [16] = test: Ex vivo angiogenic activity in Aprepitant-treated C57BL/6 mouse aortic ring assessed as sprouting by measuring vessel outgrowth area at 20 uM measured for 7 days by microscopic analysis (reference value: 117.3 %); type: functional; conditions: time 7 day
RAW264.7 [17] = test: Induction of cell migration in Aprepitant-treated mouse RAW264.7 cells at 5 to 20 uM incubated for 24 hrs by crystal violet staining based microscopy; type: functional; conditions: dose 5-20 µM
Mus musculus [18] = organism: Mus musculus; test: Induction of wound healing in BALB/c mouse model of full-thickness wounds assessed as decrease in recruitment of M1-type macrophages in wound skin at 50 ug/ml, TOP bid measured after 4 days by IHC analysis; type: functional; conditions: dose 50.0 µg/ml, time 4.0 day
[19] = Induction of wound healing in BALB/c mouse model of full-thickness wounds at 200 ug/ml, TOP bid measured after 4 days (reference value: 48.6 %); type: functional; conditions: dose 200 µg/ml, time 4 day
[20] = Induction of wound healing in BALB/c mouse model of full-thickness wounds at 100 ug/ml, TOP bid measured after 6 days (reference value: 71.7 %); type: functional; conditions: dose 100 µg/ml, time 6 day
HUVEC [21] = test: Angiogenic activity in Aprepitant-treated HUVEC cells assessed as increase in tube formation at 20 uM measured for 4 hrs by microscopic analysis; type: functional, cell-based; conditions: Homo sapiens
HUVEC [22] = test: Induction of cell migration in HUVEC cells assessed as healing rate at 20 uM measured after 48 hrs by scratch healing assay (reference value: 57.2 %); type: functional, Homo sapiens
RAW264.7 [23] = test: Induction of phagocytosis in mouse RAW264.7 cells cultured with Escherichia coli ATCC 25922 assessed as number of engulfed bacteria at 20 uM incubated for 24 hrs followed by bacterial exposure measured after 1 hr by plate counting method (reference value: 225); type: functional; conditions: time 25 hrs
Mus musculus [24] = organism: Mus musculus; test: Induction of wound healing in BALB/c mouse model of full-thickness wounds assessed as increase in epidermal layer re-constuction at 50 ug/ml, TOP bid measured after 8 days by H and E staining based analysis; type: functional; conditions: dose 50.0 µg/ml, time 8.0 day
RAW264.7 [25] = test: Upregulation of phosphorylated Smad3 level in mouse RAW264.7 cells at 2.5 to 20 uM incubated for 4 hrs by Western blot analysis; type: functional, cell-based; conditions: dose 2.5-20 µM
RAW264.7 [26] = test: Induction of IL-6 expression in mouse RAW264.7 cells incubated for 24 hrs by ELISA; type: functional, cell-based; conditions: dose 2.5-20 µM
RAW264.7 [27] = test: Upregulation of phosphorylated Smad3 level in Aprepitant-treated mouse RAW264.7 cells at 2.5 to 20 uM incubated for 4 hrs by Western blot analysis; type: functional, cell-based; conditions: dose 2.5-20 µM
Aorta [28] = test: Ex vivo angiogenic activity in C57BL/6 mouse aortic ring assessed as increase in sprouting by measuring vessel outgrowth area at 5 uM measured for 7 days by microscopic analysis relative to control; type: functional; conditions: time 7 day
HaCaT = test: Induction of cell migration in human HaCaT cells assessed as healing rate at 20 uM measured after 24 hrs by scratch healing assay (reference value: 36.8 %); type: functional
NIH3T3 = test: Effect on cell migration in mouse 3T3 cells at 20 uM incubated upto 48 hrs by scratch healing assay; type: functional, cell-based
[29] = Induction of wound healing in BALB/c mouse model of full-thickness wounds at 50 ug/ml, TOP bid pretreated with Aprepitant for 2 hrs followed by compound administration measured after 6 days (reference value: 69.3 %); type: functional; conditions: dose 50 µg/ml, time 6 day

In the case of H-KPNPDRFYGLM-NH2, the Activity (RAW264.7 [1]) is reported as “Active”, the Activity (Staphylococcus aureus) is reported as “inactive” and the Activity (RAW264.7 [2]) is reported as “Active”. For the same substance, the Activity [3] was 93.1%, the Activity (Neutrophil) was “inactive” and the Activity (Escherichia coli) was “inactive”. For the same substance, the Activity (Splenic fibroblast) was “inactive”, the Activity [4] was 119.3 pg/mL and the Activity (Mus musculus [5]) was “Active”. For the same substance, the Activity (HUVEC [6]) was 46.7%, the Activity [7] was 90.7 pg/mL and the Activity (HUVEC [8]) was “Active”. The Activity [9] was 69.9%, the Activity [10] was 100% and the Activity (RAW264.7 [11]) was 338. The Activity (RAW264.7 [12]) was “Dose-Dependent Effect”, the Activity (Mus musculus [13]) was “Active” and the Activity (Mus musculus [14]) was “Active”. The Activity [15] was 56.1%, the Activity (Aorta [16]) was 40% and the Activity (RAW264.7 [17]) was “inactive”. The Activity (Mus musculus [18]) was “Active”, the Activity [19] was 77.1% and the Activity [20] was 93.9%. For the same substance, the Activity (HUVEC [21]) was “inactive”, the Activity (HUVEC [22]) was 83.4% and the Activity (RAW264.7 [23]) was 350. For the same substance, the Activity (Mus musculus [24]) was “Active”, the Activity (RAW264.7 [25]) was “Active” and the Activity (RAW264.7 [26]) was “Dose-Dependent Effect”. For the same substance, the Activity (RAW264.7 [27]) was “inactive”, the Activity (Aorta [28]) was 77.6% and the Activity (HaCaT) was 72.1%. For the same substance, the Activity (NIH3T3) was “inactive” and the Activity [29] was 69.4%.

Source: ChEMBL document CHEMBL5375968, “Peptide TK-HR from the Skin of Chinese Folk Medicine Frog Hoplobatrachus Rugulosus Accelerates Wound Healing via the Activation of the Neurokinin-1 Receptor” (J Med Chem, 2023)
